From article PMC5361811, “Inhibition of human endogenous retrovirus-K by antiretroviral drugs” (Retrovirology, 2017)

Tested on: T1, HERV-K protease
T1 construct: gene pro; retroviral aspartic protease of consensus HERV-K genome (from Gag-Pro-Pol polyprotein; synthetic, plasmid pCD-HK/Rev), acting in transfected HeLa or 293 cells and virions; homodimer by homology
Experiment: virus production in transfected HeLa cells, RT activity in supernatant by PERT
Format: cell-based
Details: Homo sapiens, read-out: HERV-K IC50 (μM)
Source text: virus production in transfected HeLa cells, RT activity in supernatant by PERT on HERV-K protease

SMILES | IC50 [µM]
CC(C)CN(C[C@@H](O)[C@H](Cc1ccccc1)NC(=O)O[C@H]1CO[C@H]2OCC[C@H]21)S(=O)(=O)c1ccc(N)cc1 [Darunavir] | 0.029
Cc1cccc(C)c1OCC(=O)N[C@@H](Cc1ccccc1)[C@@H](O)C[C@H](Cc1ccccc1)NC(=O)[C@H](C(C)C)N1CCCNC1=O [Lopinavir] | 0.034
